Measurements published in patent publication US20250019386A1, “PYRROLO[1,2-b]-2-PYRIDAZINONE COMPOUNDS AS 5-HT4 RECEPTOR AGONISTS” (SUVEN LIFE SCIENCES LIMITED, priority 2022, published 2025).

Target: 5-HT4 receptors (Homo sapiens (Human), UniProt Q13639)
Assay: Determination of EC50 values for 5-HT4 receptor (pCRE-Luc reporter assay)
Assay type: cell-based
Settings: CHO cells expressing recombinant human 5-HT4 receptor and pCRE-Luc reporter; 4 h incubation; luciferase activity
Experimental: A stable CHO cell line expressing recombinant human 5-HT4 receptor and pCRE-Luc reporter system was used for cell-based assay. The assay offers a non-radioactive based approach to determine binding of a compound to GPCRs. In this specific assay, the level of intracellular cyclic AMP, which is modulated by activation, or inhibition of the receptor is measured. The recombinant cells harbor luciferase reporter gene under the control of cAMP response element.
The above cells were grown in 96 well clear bottom white plates in Ham's F12 medium containing 10% fetal bovine serum. Prior to the addition of compounds or standard agonist, cells were serum starved overnight. Increasing concentrations of test compounds were added to the cells in OptiMEM medium. The incubation was continued in CO2 incubator at 37° C. with 5% CO2 conditions for 4 h. Medium was removed and cells were washed with phosphate buffered saline. The cells were lysed and luciferase activity was measured in a Luminometer. Concentration-response data was generated using the luciferase assay, following incubation of cells with receptor ligands, were analyzed by subtracting basal levels (i.e. with medium alone), then normalizing values as a percentage of controls (endogenous agonist serotonin (10 μM)). […] EC50 values of the compounds were defined as the concentration required in stimulating the luciferase activity by 50%.

Sequence of 5-HT4 receptors (Q13639 whole entry): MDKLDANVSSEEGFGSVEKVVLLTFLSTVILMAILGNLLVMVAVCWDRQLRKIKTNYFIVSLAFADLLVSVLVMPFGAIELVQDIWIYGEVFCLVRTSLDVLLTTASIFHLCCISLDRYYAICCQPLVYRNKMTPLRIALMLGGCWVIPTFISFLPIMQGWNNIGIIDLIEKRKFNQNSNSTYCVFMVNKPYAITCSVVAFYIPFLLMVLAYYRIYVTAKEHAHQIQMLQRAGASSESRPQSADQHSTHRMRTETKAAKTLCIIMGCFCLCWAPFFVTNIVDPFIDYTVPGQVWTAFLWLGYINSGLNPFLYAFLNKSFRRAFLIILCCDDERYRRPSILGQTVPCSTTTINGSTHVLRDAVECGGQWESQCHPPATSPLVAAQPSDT

Structure (SMILES)	EC50
COC(=O)NCCCN1C2CCC1CC(NC(=O)c1cc3cccn3n(C(C)C)c1=O)C2 (stereo not drawn) [Example 33, N-{8-[3-Carbomethoxyaminopropyl]-8-azabicyclo[3.2.1]oct-3-yl} [1-isopropyl-2-oxo-1,2-dihydro pyrrolo[1,2-b]pyridazin]-3-carboxamide]	12 nM
CC(C)n1c(=O)c(C(=O)NC2CC3CCC(C2)N3C[C@@H](O)CN(C)S(C)(=O)=O)c(O)c2cccn21 (stereo partly drawn) [Example 7, (R)-N-{8-[2-Hydroxy-3-[(N-methyl)methanesulfonamido]propyl]-8-azabicyclo[3.2.1]oct-3-yl} [4-hydroxy-1-isopropyl-2-oxo-1,2-dihydro pyrrolo[1,2-b]pyridazine]-3-carboxamide]	10.1 nM
COC(=O)NCCN1C2CCC1CC(NC(=O)c1cc3cccn3n(C(C)C)c1=O)C2 (stereo not drawn) [Example 35, N-{8-[2-Carbomethoxyaminomethyl]-8-azabicyclo[3.2.1]oct-3-yl} [1-isopropyl-2-oxo-1,2-dihydro pyrrolo[1,2-b]pyridazin]-3-carboxamide]	12 nM
CC(=O)N1CCN(CCN2C3CCC2CC(NC(=O)c2cc4cccn4n(C(C)C)c2=O)C3)CC1 [Example 38, N-{8-[2-(4-Acetylpiperazin-1-yl)ethyl]-8-azabicyclo[3.2.1]oct-3-yl} [1-isopropyl-2-oxo-1,2-dihydro pyrrolo[1,2-b]pyridazine]-3-carboxamide L-(+)-tartrate]	15.4 nM
CC(C)n1c(=O)c(C(=O)NC2CC3CCC(C2)N3C[C@@H](O)CN2CCN(S(C)(=O)=O)CC2)cc2cccn21 (stereo partly drawn) [Example 18, (R)-N-{8-[2-Hydroxy-3-[(1-methanesulfonylpiperazin)-4-yl]propyl]-8-azabicyclo[3.2.1]oct-3-yl} [1-isopropyl-2-oxo-1,2-dihydro pyrrolo[1,2-b]pyridazin]-3-carboxamide L(+)tartarate]	2.4 nM
CC(C)n1c(=O)c(C(=O)NC2CC3CCC(C2)N3C[C@@H](O)CNS(C)(=O)=O)cc2cccn21 (stereo partly drawn) [Example 14, (R)-N-{8-[2-Hydroxy-3-(methanesulfonamido)propyl]-8-azabicyclo[3.2.1]oct-3-yl} [1-isopropyl-2-oxo-1,2-dihydro pyrrolo[1,2-b]pyridazine]-3-carboxamide L-(+)-tartarate]	6.3 nM
CC(C)n1c(=O)c(C(=O)NC2CC3CCC(C2)N3CCNS(=O)(=O)C(C)C)cc2cccn21 (stereo not drawn) [Example 29, N-{8-[2-Isopropylsulfonylaminoethyl]-8-azabicyclo[3.2.1]oct-3-yl} [1-isopropyl-2-oxo-1,2-dihydro pyrrolo[1,2-b]pyridazin]-3-carboxamide]	16 nM
CC(C)n1c(=O)c(C(=O)NC2CC3CCC(C2)N3C[C@@H](O)CN2CCN(S(C)(=O)=O)CC2)c(O)c2cccn21 (stereo partly drawn) [Example 20, (R)-N-{8-[2-Hydroxy-3-[(1-methanesulfonylpiperazin)-4-yl]propyl]-8-azabicyclo[3.2.1]oct-3-yl} [4-hydroxy-1-isopropyl-2-oxo-1,2-dihydro pyrrolo[1,2-b]pyridazin]-3-carboxamide L-(+)-tartarate]	14 nM
CC(C)n1c(=O)c(C(=O)NC2CC3CCC(C2)N3C[C@@H](O)CN(C)S(C)(=O)=O)cc2cccn21 (single isomer, unassigned) [Example 1]	2 nM
CC(C)n1c(=O)c(C(=O)NC2CC3CCC(C2)N3CCCNS(=O)(=O)C(C)C)cc2cccn21 (stereo not drawn) [Example 25, N-{8-[3-Isopropylsulfonylaminopropyl]-8-azabicyclo[3.2.1]oct-3-yl} [1-isopropyl-2-oxo-1,2-dihydro pyrrolo[1,2-b]pyridazin]-3-carboxamide]	13 nM
CC(=O)NCCCN1C2CCC1CC(NC(=O)c1cc3cccn3n(C(C)C)c1=O)C2 (stereo not drawn) [Example 31, N-{8-[3-Acetamidopropyl]-8-azabicyclo[3.2.1]oct-3-yl} [1-isopropyl-2-oxo-1,2-dihydro pyrrolo[1,2-b]pyridazin]-3-carboxamide]	35.1 nM
CC(C)n1c(=O)c(C(=O)NC2CC3CCC(C2)N3C[C@@H](O)CN(C)S(C)(=O)=O)c(O)c2cccn21 (stereo partly drawn) [Example 8, (R)-N-{8-[2-Hydroxy-3-[(N-methyl)methanesulfonamido]propyl]-8-azabicyclo[3.2.1]oct-3-yl} [4-hydroxy-1-isopropyl-2-oxo-1,2-dihydro pyrrolo[1,2-b]pyridazine]-3-carboxamide L-(+)-tartarate]	6.1 nM
CC(C)n1c(=O)c(C(=O)NC2CC3CCC(C2)N3CC(O)CN(C)S(C)(=O)=O)cc2cccn21 (racemic) [Example 5, Racemic-N-{8-[2-Hydroxy-3-[(N-methyl)methanesulfonamido]propyl]-8-azabicyclo[3.2.1]oct-3-yl} [1-isopropyl-2-oxo-1,2-dihydro pyrrolo[1,2-b]pyridazine]-3-carboxamide]	3.1 nM
CC(C)n1c(=O)c(C(=O)NC2CC3CCC(C2)N3CCCNS(C)(=O)=O)cc2cccn21 [Example 24, N-{8-[3-[methanesulfonamido]propyl]-8-azabicyclo[3.2.1]oct-3-yl} [1-isopropyl-2-oxo-1,2-dihydro pyrrolo[1,2-b]pyridazine]-3-carboxamide L-(+)-tartarate]	11 nM
CC(C)n1c(=O)c(C(=O)NC2CC3CCC(C2)N3CCCN(C)S(C)(=O)=O)cc2cccn21 (stereo not drawn) [Example 22, N-{8-[3-[(N-Methyl)methanesulfonamido]propyl]-8-azabicyclo[3.2.1]oct-3-yl} [1-isopropyl-2-oxo-1,2-dihydro pyrrolo[1,2-b]pyridazine]-3-carboxamide]	58 nM
CC(C)n1c(=O)c(C(=O)NC2CC3CCC(C2)N3CC(O)CN(C)S(C)(=O)=O)cc2cccn21 (racemic) [Example 6, Racemic-N-{8-[2-Hydroxy-3-[(N-methyl)methanesulfonamido]propyl]-8-azabicyclo[3.2.1]oct-3-yl} [1-isopropyl-2-oxo-1,2-dihydro pyrrolo[1,2-b]pyridazine]-3-carboxamide L(+)-tartarate]	3.3 nM
CC(C)n1c(=O)c(C(=O)NC2CC3CCC(C2)N3C[C@H](O)CN(C)S(C)(=O)=O)cc2cccn21 (single isomer, unassigned) [Example 3]	9 nM
CC(=O)N(C)C[C@H](O)CN1C2CCC1CC(NC(=O)c1cc3cccn3n(C(C)C)c1=O)C2 (stereo partly drawn) [Example 15, (R)-N-{8-[2-Hydroxy-3-[(N-methyl)acetamido]propyl]-8-azabicyclo[3.2.1]oct-3-yl} [1-isopropyl-2-oxo-1,2-dihydro pyrrolo[1,2-b]pyridazine]-3-carboxamide]	8 nM
